The results in this text go back to EP3386957B1, “PROCESS FOR THE PURIFICATION OF 10-DEACETYL BACCATIN III” (RotaChrom Technológiai és Szolgálató Zártkörüen Müködö …, priority 2015, dated 2017).

Holding throughout (type): physicochemical
Data set [1] is described as follows: Partition coefficient in biphasic CPC solvent systems. From the text:
(§1) As such a degree of solubility may only be achieved in a mixture of MIBK, acetone and water after heating, after cooling and shaking the substance crystalized (Margraff, 1995). The partition coefficient of 10-DAB III is around 6. […] The chromatogram according to Figure 3 presents a product purified in such a solvent system.
(§2) It was also surprising to experience that the biphasic system formed by the mixture of methyl tert-butyl ether (hereinafter: MTBE), acetone and water is also suitable for dissolving 10-DAB III, if their volumetric mixing ratio is approximately 4:4:3, in which the upper phase is a mixture of 40% MTBE, 50% acetone and 10% water, and the lower phase is a mixture of 40% water, 50% acetone and 10% MTBE. 10-DAB III is insoluble separately in MTBE and in water, but it dissolves in both phases of the aforementioned ternary solvent mixture, solubility in the upper phase is 50 mg/ml. […] Such contaminants on the basis of the HPLC method below are the RRT=0.68 and the RRT=0.87 contaminants.
Liquid chromatography or extraction performed with a chlorinated hydrocarbon is usually used for the separation of chlorophyll and related compounds. […] A solvent system that may be used for this may be the dichloromethane, methanol and water mixture at an approximate volumetric ratio of 3:4:3. In this solvent system the partition coefficient of 10-DAB III is 0.95, while that of the aforementioned problematic contaminants is around 0.4-0.5.

Data set [2] is described as follows: Solubility of 10-DAB III in solvents and biphasic solvent systems.
From the text: as §1, §2

Data set [3] in a line: Selectivity of CPC solvent systems for contaminants of 10-DAB III (contaminants identified by HPLC relative retention time). How it is done: The HPLC methods used for the analysis: • 1. Isocratic method • Column: Dr Maisch ReproSil-Pur C18-AQ (150x4.0 mm, 3 um) • Column thermostat: 35 °C • Flow rate: 0.75 ml/min • Eluent: 28% acetonitrile, 72% water, 0.1% acetic acid • Detection wavelength: 230 +/- 5 nm • Injected volume: 10 ul • 2. Gradient method • Colum: Phenomenex Kinetex C18 (100x3.0 mm, 2.6 um) • Column thermostat: 35 °C • Flow rate: 0.7 ml/min • Eluent A: water + 0.1% acetic acid Eluent B: acetonitrile Gradient program: 0 min 20% B, 5 min: 30% B, 11 min 40% B, 13 min 40% B, 14 min 20% B, 18 min 20% B • Detection wavelength: 230 +/- 5 nm • Injected volume: 5 ul
Table 3: the selectivity matrix of the individual methods according to the invention

≈ marks a conversion by molar mass, not a printed value. Where two headings read alike, the source gives them in different places.

For `CC(=O)O[C@@]12CO[C@@H]1C[C@H](O)[C@@]1(C)C(=O)[C@H](O)C3=C(C)[C@@H](O)C[C@@](O)([C@@H](OC(=O)c4ccccc4)[C@H]21)C3(C)C` [10-DAB III, 10-deacetylbaccatin III], the partition coefficient entry in data set [1] (MEK/water biphasic system) is “around 6”; in data set [1] (MTBE/acetone/water approximately 4:4:3), “around 2”; in data set [1] (dichloromethane, methanol and water approximately 3:4:3), 0.95. In addition, the solubility (commonly the dissolved amount per volume that the medium holds) in data set [2] (organic solvent or mixture, MTBE/acetone/water approximately 4:4:3, upper phase (40% MTBE, 50% acetone, 10% water), read-out: solubility in the upper phase) was 50 mg/mL (≈ 91.8 mM); in data set [2] (separately in MEK or water) it was “does not dissolve well”; in data set [2] (separately in MTBE and in water), “insoluble”; in data set [2] (upper phase of MEK/water biphasic system, organic solvent or mixture, MEK/water biphasic system, upper phase (MEK saturated with water), read-out: solubility in the upper phase) it was 80 mg/mL (≈ 147 mM).

Regarding `CC(=O)O[C@@]12CO[C@@H]1C[C@H](O)[C@@]1(CO)C(=O)[C@H](O)C3=C(C)[C@@H](O)C[C@@](O)([C@@H](OC(=O)c4ccccc4)[C@H]21)C3(C)C` [RRT=0.48, 19-OH-10-deacetylbaccatin III], the selectivity result in data set [3] (CPC solvent mixture DCM/MeOH/water, Table 3) is “+”; in data set [3] (CPC solvent mixture MEK/water, isocratic HPLC method) it was “great selectivity”; in data set [3] (CPC solvent mixture MEK/water, Table 3), “+++ (high selectivity)”; in data set [3] (CPC solvent mixture MTBE/acetone/water, isocratic HPLC method) it was “great selectivity”; in data set [3] (prior-art system: mixture of methyl isobutyl ketone, acetone and water), “excellent selectivity”.
